Experimental data reported in patent US20250296938A1, “Compounds that Interact with the Ras Superfamily for the Treatment of Cancers, Inflammatory Diseases, Rasopathies, and Fibrotic Disease” (SHY Therapeutics, LLC, priority 2018, published 2025).

How the values were obtained:
Conditions in all cases: Homo sapiens; for inhibition at 10 µM: 6 hours, EGF stimulation
[1] = tested on: GTP-bound RAS; assay: Cell-based Ras-GTP pulldown assay, PANC-1
Method: (§1) Cell lines: Human NSCLC cells NCI-H1975, and tumor-derived pancreatic cancer cell lines Panc-1, and MIA-PaCa-2, were all purchased from American Type Culture Collection and grown in complete RPMI medium (NCI-H1975) or DMEM-High Glucose (Panc1 and MIA-PaCa-2), supplemented with penicillin (100 U/mL), streptomycin (100 μg/mL), and 10% heat-inactivated FBS at 37° C. in a humidified incubator with 5% CO2.
(§2) Method: Cells were plated at 2·10^6 cells/well density in a 6-well plate, allowed 3 hours to adhere to the plate, then starved in the appropriate medium in the presence of 0.5% FBS overnight. The small molecules to be tested were added to the cells in the final concentration of 10 μM in the presence of 0.3% DMSO for 6 hours incubation at 37° C. For IC50 value determination, serial dilutions of compounds were added to cells under the same conditions. Next, cells were stimulated with 5 ng/mL EGF for 5 minutes, rinsed with ice-cold PBS and then lysed with 500 μL of lysis/binding/wash buffer (25 mM Tris-HCl, pH 7.2, 150 mM NaCl, 5 mM MgCl2, 5% glycerol, 1% NP40) from Active Ras Detection kit (Cell signaling Technology, #8821) supplemented with Halt™ Protease & Phosphatase Inhibitor Cocktail (Thermo Scientific). To account for significant differences in cell number due to the treatment, a small sample of lysate was saved for protein quantification and the rest of the lysate was snap frozen. Protein concentration was assessed by BCA protein assay (Thermo Scientific). To ensure that equal amount of protein undergoes RBD pulldown, lysates were subsequently thawed (at RT) and adjusted to 1 mg/mL with lysis/binding/wash buffer (0.5 mL volume). Equal amounts of lysate were then added to 0.5 mL lysis buffer containing RAF-RBD (1 mL total volume). Lysates were vortexed, incubated for 10 min on ice and subsequently pre-cleared at 14,000 rpm for 5 min at 4° C. 90% of the pre-cleared lysates were subsequently added to pre-washed glutathione agarose beads from Active Ras Detection kit (Cell signaling Technology, #8821) for 1 hour at 4 °C under constant rocking. The beads were subsequently pelleted, washed 3 times with lysis/binding/wash buffer, and eluted for western blotting with 50 μL of 1×SDS-PAGE sample buffer. Level of GTP-bound RAS was determined by western blot.
(§3) Western blot protocol: Equal volumes of eluate (25 μL) were separated by 16% SDS-PAGE and transferred to nitrocellulose membranes (Invitrogen by Thermo Fisher Scientific). The membrane was stained with Ponceau S Stain (Boston BioProducts) to verify uniform protein loading. […]

[2] = tested on: GTP-bound RAS; assay: Cell-based Ras-GTP pulldown assay, MIA PaCa-2
Method: as §1, §2
Western blot protocol: Equal volumes of eluate (25 μL) were separated by 16% SDS-PAGE and transferred to nitrocellulose membranes (Invitrogen by Thermo Fisher Scientific). The membrane was stained with Ponceau S Stain (Boston BioProducts) to verify uniform protein loading. Membranes were blocked with 5% BSA in TBST and then incubated overnight at 4° C. with anti-RAS mouse monoclonal antibody from the Active Ras Detection kit (Cell signaling Technology, #8821), followed by HRP-conjugated secondary antibody (Jackson Immunoresearch, West Grove, PA). Membranes were incubated in Amersham ECL Prime Western Blotting Detection Reagent (GE Healthcare) and bands were visualized using the ChemiDoc MP imaging system (Bio-Rad).

[3] = tested on: GTP-bound RAS; assay: Cell-based Ras-GTP pulldown assay, NCI H1975
Method: as §1, §2, §3

**Q.** Which results are given for `COCCNc1nc(-c2nccn2C)nc2sc(-c3cccc(OC)c3Cl)c(-c3ccccc3)c12` [drawing 1076]?
**A.** inhibition at 10 µM [1]: 76 to 100%; inhibition at 10 µM [2]: 76 to 100%; inhibition at 10 µM [3]: 76 to 100%

**Q.** For `CO[C@H]1CCC(Nc2nc(-c3nccn3C)nc3sc(-c4ccn(C)n4)c(-c4ccccc4)c23)C1` (stereo partly shown) [drawing 1077], which inhibition at 10 µM [1] is on record?
**A.** 76 to 100%

**Q.** And the inhibition at 10 µM [2]?
**A.** 76 to 100%

**Q.** And the inhibition at 10 µM [3]?
**A.** 76 to 100%

**Q.** Which inhibition at 10 µM [2] does the source give for `CO[C@H]1CC[C@@H](Nc2nc(-c3nccn3C)nc3sc(-c4ccn(C(C)C)n4)c(C4=CC=CCC=C4)c23)C1` [drawing 1078] here?
**A.** 76 to 100%

**Q.** Which results are given for `COCCNc1nc(-c2nccn2C)nc2sc(-c3cccc(OC)c3Cl)c(-c3ccccc3)c12` [drawing 1079]?
**A.** IC50 [1]: 0.75 to 1 µM; IC50 [2]: 0.75 to 1 µM; IC50 [3]: > 1 µM

**Q.** Which results are given for `CO[C@H]1CCC(Nc2nc(-c3nccn3C)nc3sc(-c4ccn(C)n4)c(-c4ccccc4)c23)C1` (stereo partly shown) [drawing 1080]?
**A.** IC50 [1]: 0.75 to 1 µM; IC50 [2]: > 1 µM; IC50 [3]: > 1 µM
